In patent US20030190289A1, “Formulations containing a glucocorticoid drug for the treatment of bronchopulmonary diseases” (priority 2000, published 2003):

Key:
[1] = Clissold et al. 1984, Edbäcker et al. 1987; cited from earlier work
[2] = cited from earlier work; for Rank order of topical activity: comparison between rac-BUD and its two epimers, Clissold et al.
[3] = Solubility in ethanol and ethanol/HFA mixtures; assay type: physicochemical; settings: in ethanol and mixtures containing ethanol and HFA134a or ethanol and HFA227
[4] = HFA propellant containing ethanol and optionally a low volatility component; inhalers with internal surface of stainless steel, anodized aluminum or epoxy phenol resin lining; WO 00/30608; cited from earlier work
[5] = studies in the animals; Clissold et al. 1984, Edbäcker et al. 1987; cited from earlier work
[6] = Pharmacokinetic and metabolic profile / systemic exposure of the epimers; assay type: in vivo; settings: studies carried out by the applicant
[7] = Chemical and physical stability in solution; assay type: physicochemical; settings: solution formulations
Description: In WO 00/30608 published on Jun.
In the same application, further 22R-BUD solution compositions in HFA 134a or 227 are described whose relevant respirable dose and the respirable fraction have been determined. In these compositions, the concentration of the active ingredient is comprised between 0.06% and 0.14% w/v equivalent to single doses of w 60, 63 and 70 μg, respectively. However, although said formulations give rise to good performances in term of respirable fraction due to the low amount of ethanol, the polarity of the whole solvent system constituted of 7-8% w/w of ethanol and 0.9% w/w of isopropyl myristate or PEG 400 is too low, leading to physical stability problem, i.e. partial precipitation of the active ingredient, after storage under stress conditions.

Structure (SMILES) | Pharmacokinetic and metabolic profile versus (22S) epimer [1] | Rank order of topical activity [2] [R >rac-BUD >22S] | Solubility versus corresponding epimer [3] | Stability in solution [4] | Potency relative to the corresponding (22S) epimer [5] [times] | Systemic exposure versus corresponding epimer [6] | Chemical degradation tendency versus corresponding epimer [7] | Ratio of topical to systemic activity ([2]; compared with other corticosteroids)
CCC[C@@H]1O[C@@H]2C[C@H]3[C@@H]4CCC5=CC(=O)C=C[C@]5(C)[C@H]4[C@@H](O)C[C@]3(C)[C@]2(C(=O)CO)O1 [Composition 22R-BUD, (22R)-budesonide] | different pharmacokinetic and metabolic profile | 22 | significantly less soluble than its corresponding epimer | stable in solution | 2 to 3 | different from that of its corresponding epimer | higher tendency to exhibit chemical degradation than its corresponding epimer | –
CCCC1OC2CC3C4CCC5=CC(=O)C=CC5(C)C4C(O)CC3(C)C2(C(=O)CO)O1 (stereo not shown) [Composition 22S] | – | 22 | – | – | – | – | – | –
CCCC1O[C@@H]2C[C@H]3[C@@H]4CCC5=CC(=O)C=C[C@]5(C)[C@H]4[C@@H](O)C[C@]3(C)[C@]2(C(=O)CO)O1 (mixture of isomers) [rac-BUD, Budesonide] | – | 22 | – | – | – | – | – | high ratio of topical to systemic activity
